Reference: BindingDB's records for doi:10.1016/j.bmc.2015.03.047 (Shanghai Institute of Technology, 2015)
pIC50: −log10 of the molar value.

Target: Rho-associated protein kinase 2 (Homo sapiens, UniProt O75116)
Experiment: Inhibition of ROCK2 (unknown origin) using STK2 substrate after 4 hrs by HTRF mode

Chain of Rho-associated protein kinase 2 (O75116 whole entry): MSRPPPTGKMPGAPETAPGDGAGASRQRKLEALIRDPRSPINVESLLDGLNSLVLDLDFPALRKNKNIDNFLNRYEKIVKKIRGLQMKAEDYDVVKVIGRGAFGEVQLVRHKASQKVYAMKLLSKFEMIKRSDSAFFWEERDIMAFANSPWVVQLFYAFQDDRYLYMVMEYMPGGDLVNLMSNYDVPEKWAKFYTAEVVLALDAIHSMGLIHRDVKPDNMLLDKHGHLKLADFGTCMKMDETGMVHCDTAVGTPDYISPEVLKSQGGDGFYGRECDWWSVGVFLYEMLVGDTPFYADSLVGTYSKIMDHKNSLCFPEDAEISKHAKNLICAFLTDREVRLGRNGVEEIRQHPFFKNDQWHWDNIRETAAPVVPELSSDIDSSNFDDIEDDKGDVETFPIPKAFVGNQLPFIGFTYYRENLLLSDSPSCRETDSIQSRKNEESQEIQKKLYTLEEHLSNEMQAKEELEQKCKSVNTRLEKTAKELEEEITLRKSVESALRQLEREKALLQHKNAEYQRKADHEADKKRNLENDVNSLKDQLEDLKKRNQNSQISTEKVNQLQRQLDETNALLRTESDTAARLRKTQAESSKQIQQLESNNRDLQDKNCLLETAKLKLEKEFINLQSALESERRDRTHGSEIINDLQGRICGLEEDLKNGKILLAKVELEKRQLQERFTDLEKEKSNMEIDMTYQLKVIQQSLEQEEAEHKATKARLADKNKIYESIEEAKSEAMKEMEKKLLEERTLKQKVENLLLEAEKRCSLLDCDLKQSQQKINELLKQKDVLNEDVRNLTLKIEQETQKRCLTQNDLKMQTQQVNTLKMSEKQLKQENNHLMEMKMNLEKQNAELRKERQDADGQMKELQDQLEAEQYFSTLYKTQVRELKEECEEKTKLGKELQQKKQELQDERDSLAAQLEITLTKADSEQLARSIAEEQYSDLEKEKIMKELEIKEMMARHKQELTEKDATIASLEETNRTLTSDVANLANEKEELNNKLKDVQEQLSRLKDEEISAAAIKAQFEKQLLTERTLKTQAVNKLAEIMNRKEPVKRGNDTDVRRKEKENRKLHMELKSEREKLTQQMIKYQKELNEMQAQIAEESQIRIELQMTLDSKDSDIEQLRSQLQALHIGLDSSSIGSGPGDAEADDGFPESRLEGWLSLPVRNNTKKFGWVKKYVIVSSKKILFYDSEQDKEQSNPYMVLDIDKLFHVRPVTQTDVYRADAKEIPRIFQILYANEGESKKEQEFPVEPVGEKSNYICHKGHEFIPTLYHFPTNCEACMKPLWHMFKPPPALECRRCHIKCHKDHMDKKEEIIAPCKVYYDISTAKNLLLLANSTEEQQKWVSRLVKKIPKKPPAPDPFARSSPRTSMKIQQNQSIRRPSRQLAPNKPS

pIC50: 6.12
Structure (SMILES): CNC(=O)N(CCO)c1ccc(-c2cn[nH]c2)cc1
